Drawing on US9512459B2 (priority 2011, dated 2016), this text covers Vmax for one compound.

Conditions in all cases: 60 ml culture, crude enzyme; glucose 1-40 mM, pH 6.5, DCIP/PMS
Assay [1] deals with Sclerotinia sclerotiorum glucose dehydrogenase (FAD-GDH) Ssc-n1 variant N191E, SEQ ID NO: 1 (Sclerotinia sclerotiorum, UniProt A7F9L2, N191E). The protocol:
(§1) The transformant BL21 (DE3) expressing each mutated enzyme was precultured. The transformant was inoculated in an amount of 1% with respect to 60 ml of a medium A using a 300-ml baffled flask and shake-cultured under conditions involving 20° C., 28 hours, and 125 rpm. After collection of 50 ml of the medium, the bacterial cells were suspended by the addition of BugBuster (registered trademark) protein extraction reagent (Novagen/Merck KGaA) at a ratio of 5 ml per g of wet cells and incubated at room temperature for 15 minutes with gentle shaking. Insoluble fractions were removed by centrifugation (15 Krpm, 4° C., 20 minutes). Then, the obtained supernatant was dialyzed overnight at 4° C. against a 20 mM potassium phosphate buffer solution (pH 6.5). After the completion of the dialysis, the dialysate was centrifuged, and the supernatant was used as a crude enzyme preparation. Insoluble fractions were suspended in a 20 mM potassium phosphate buffer solution (pH 6.5) at a ratio of 1 ml per 2 ml of the suspension containing the insoluble fractions.
(§2) The GDH activity was measured in a DCIP (0.3 mM)/PMS (0.6 mM) system using a 20 mM potassium phosphate buffer solution (pH 6.5) as a buffer solution and glucose (Glc; 1, 2, 4, 10, 20, and 40 mM) and xylose (Xyl; 4 and 40 mM) as substrates.
(§3) The numeric values in the tables represent a mean of several data about specific activity (U/mg) and productivity (U/L) obtained under the same conditions with 40 mM glucose as a substrate. The obtained crude enzyme preparation was used to observe the correlation between the concentration of the substrate (glucose; 1, 2, 4, 10, 20, and 40 mM) and the activity. The obtained Michaelis-Menten constant (Km value) and apparent maximum activity (Vmax) were determined from a saturation curve determined therefrom.

Assay [2] concerns the target Sclerotinia sclerotiorum glucose dehydrogenase (FAD-GDH) Ssc-n1 variant N191K, SEQ ID NO: 1 (Sclerotinia sclerotiorum, UniProt A7F9L2, N191K). The procedure: as §1, §2, §3
Assay [3] has as its target Sclerotinia sclerotiorum glucose dehydrogenase (FAD-GDH) Ssc-n1 variant N191K/S529G, SEQ ID NO: 1 (Sclerotinia sclerotiorum, UniProt A7F9L2, N191K/S529G). The protocol:
as §1, §2, §3

For assay [4], the target named is Sclerotinia sclerotiorum glucose dehydrogenase (FAD-GDH) Ssc-n1 variant N191R, SEQ ID NO: 1 (Sclerotinia sclerotiorum, UniProt A7F9L2, N191R). The procedure:
as §1, §2, §3

Assay [5] deals with Sclerotinia sclerotiorum glucose dehydrogenase (FAD-GDH) Ssc-n1 variant N191S, SEQ ID NO: 1 (Sclerotinia sclerotiorum, UniProt A7F9L2, N191S). The procedure: as §1, §2, §3
Assay [6] addresses Sclerotinia sclerotiorum glucose dehydrogenase (FAD-GDH) Ssc-n1 variant S529G, SEQ ID NO: 1 (Sclerotinia sclerotiorum, UniProt A7F9L2, S529G). The procedure: as §1, §2, §3
Assay [7] has as its target Sclerotinia sclerotiorum glucose dehydrogenase (FAD-GDH) Ssc-n2 variant N191E/S529G, SEQ ID NO: 1 (Sclerotinia sclerotiorum, UniProt A7F9L2, N191E/S529G). The protocol: as §1, §2, §3
Assay [8] has as its target Sclerotinia sclerotiorum glucose dehydrogenase (FAD-GDH) Ssc-n2 variant N191R/S529G, SEQ ID NO: 1 (Sclerotinia sclerotiorum, UniProt A7F9L2, N191R/S529G). The procedure:
as §1, §2, §3

The target in assay [9] is Sclerotinia sclerotiorum glucose dehydrogenase (FAD-GDH) Ssc-n2 variant N191S/S529G, SEQ ID NO: 1 (Sclerotinia sclerotiorum, UniProt A7F9L2, N191S/S529G). The protocol:
as §1, §2, §3

The target in assay [10] is Sclerotinia sclerotiorum glucose dehydrogenase (FAD-GDH) Ssc-n3 variant N191K/S529G, SEQ ID NO: 1 (Sclerotinia sclerotiorum, UniProt A7F9L2, N191K/S529G). The protocol:
as §1, §2, §3

Assay [11] addresses Sclerotinia sclerotiorum glucose dehydrogenase (FAD-GDH) Ssc-n4 variant N191K/S529G, SEQ ID NO: 1 (Sclerotinia sclerotiorum, UniProt A7F9L2, N191K/S529G). The procedure: as §1, §2, §3
Assay [12] has as its target T1, Aspergillus niger glucose dehydrogenase (FAD-GDH) Ang-n1, wild type, SEQ ID NO: 2 (20 N-terminal residues deleted, Ala21 substituted by Met) (Aspergillus niger, UniProt A2QWL1).
T1 construct: pET30c, E. coli BL21(DE3), crude extract
T1 sequence (A2QWL1 with tags, fused parts or gaps): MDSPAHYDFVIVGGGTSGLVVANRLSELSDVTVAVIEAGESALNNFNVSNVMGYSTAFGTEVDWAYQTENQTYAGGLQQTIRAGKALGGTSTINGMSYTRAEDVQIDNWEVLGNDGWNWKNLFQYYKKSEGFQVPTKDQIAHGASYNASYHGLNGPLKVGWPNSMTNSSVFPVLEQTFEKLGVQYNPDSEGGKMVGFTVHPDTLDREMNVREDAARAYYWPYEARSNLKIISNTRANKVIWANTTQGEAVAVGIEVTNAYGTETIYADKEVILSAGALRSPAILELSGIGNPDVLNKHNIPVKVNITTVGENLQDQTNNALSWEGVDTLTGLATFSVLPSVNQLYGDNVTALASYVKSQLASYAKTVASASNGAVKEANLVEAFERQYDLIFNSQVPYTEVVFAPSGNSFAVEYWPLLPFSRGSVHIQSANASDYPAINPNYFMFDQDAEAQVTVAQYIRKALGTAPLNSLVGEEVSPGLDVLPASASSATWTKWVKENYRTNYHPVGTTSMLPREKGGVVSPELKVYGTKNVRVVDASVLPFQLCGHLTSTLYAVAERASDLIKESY
As to the kind of experiment: GDH activity vs glucose, saturation curve (Ang-n1). In kind it is biochemical. The protocol:
as §1, with “After the completion of the dialysis, the dialysate was centrifuged, and the supernatant was used as a crude enzyme preparation. Insoluble fractions were suspended in a 20 mM potassium phosphate buffer solution (pH 6.5) at a ratio of 1 ml per 2 ml of the suspension containing the insoluble fractions.” left out
as §2
The numeric values in the tables represent a mean of several data about specific activity (U/mg) and productivity (U/L) obtained under the same conditions with 40 mM glucose as a substrate. […] The obtained Michaelis-Menten constant (Km value) and apparent maximum activity (Vmax) were determined from a saturation curve determined therefrom.

Regarding `OC[C@H]1OC(O)[C@H](O)[C@@H](O)[C@@H]1O` (stereo partly drawn) [glucose], the Vmax turned out to be 5.6 U/mg protein in [1]; 1.6 U/mg protein in [2]; 7.2 U/mg protein in assay [3]; 5.6 U/mg protein in assay [4]; 3.7 U/mg protein in [5]; 3.6 U/mg protein in assay [6]. Moreover, the Vmax in assay [7] was 20.2 U/mg protein; in assay [8], 15.7 U/mg protein; in assay [9] it was 19.4 U/mg protein; in [10], 6.9 U/mg protein; in assay [11] it was 9.2 U/mg protein; in assay [12] it was 0.2 U/mg protein.
